# Assay results taken from patent publication US8445492B2, “Method for inhibiting growth of cancer cells and cell telomere and diseases of cell proliferation by using heteroannelated anthraquinone derivative compounds” (National Defense Medical Center, priority 2008, dated 2013).
# Read-outs that look alike come from different tables or passages of the source.
# Key:
# [1] = system: HOP-62; experiment: in vitro test at 1.0×10^−5 M, Non-small cell lung cancer cell; assay type: cell-based; details: 1.0×10^−5 molal concentration (M)
# [2] = system: HCC-2998; experiment: in vitro test at 1.0×10^−5 M, Colorectal cancer cell; assay type: cell-based; details: 1.0×10^−5 molal concentration (M)
# [3] = system: HS 578T; experiment: in vitro test at 1.0×10^−5 M, Breast cancer cell; assay type: cell-based; details: 1.0×10^−5 molal concentration (M)
# [4] = system: different cancer cell lines; experiment: in vitro test at 1.0×10^−5 M, summary over the cell lines; assay type: cell-based; design: unit not given here; details: 1.0×10^−5 molal concentration (M)
# [5] = system: CCRF-CEM
# [6] = system: HL-60(TB)
# [7] = system: K-562
# [8] = system: MOLT-4
# [9] = system: RPMI-8226
# [10] = system: A549/ATCC
# [11] = system: HOP-62
# [12] = system: NCI-H226
# [13] = system: NCI-H23
# [14] = system: NCI-H460
# [15] = system: NCI-H522
# [16] = system: CCRF-CEM; experiment: cells; details: Homo sapiens
# [17] = system: HL-60(TB); experiment: cells; details: Homo sapiens, HL-60
# [18] = system: PC-3
# [19] = system: MOLT-4; experiment: cells; details: Homo sapiens, MOLT-4
# [20] = system: DU-145
# [21] = system: RPMI-8226; experiment: cells; details: Homo sapiens, RPMI-8226
# [22] = system: A549/ATCC; experiment: cells; details: Homo sapiens, A549
# [23] = system: EKVX; experiment: cells; details: Homo sapiens
# [24] = system: HOP-62; experiment: cells; details: Homo sapiens, HOP-62
# [25] = system: HOP-92; experiment: cells; details: Homo sapiens, HOP-92
# [26] = system: NCI-H226; experiment: cells; details: Homo sapiens, NCI-H226
# [27] = system: NCI-H23; experiment: cells; details: Homo sapiens, NCI-H23
# [28] = system: NCI-H460; experiment: cells; details: Homo sapiens, NCI-H460
# [29] = system: NCI-H522; experiment: cells; details: Homo sapiens, NCI-H522
# [30] = system: PC-3; experiment: cells; details: Homo sapiens, PC-3
# [31] = system: DU-145; experiment: cells; details: Homo sapiens, DU-145
smiles,measurement,setting,value
"CCc1nc2ccc3c(c2[nH]1)C(=O)c1ccccc1C3=O [No. 4, 2-Ethyl-1(3)H-anthra[1,2-d]imidazole-6,11-dione]",inhibition effect on cancer cell line (Table 2 value),[1],97.73
same,inhibition effect on cancer cell line (Table 2 value),[2],67.67
same,inhibition effect on cancer cell line (Table 2 value),[3],−18.58
same,Mean,[4],58.42
same,TGI,[5]; CCRF-CEM,>1.00E−4
same,Percent Growth,[5]; Log10 Concentration −4.0,15%
same,Percent Growth,[5]; Log10 Concentration −5.0,51%
same,Percent Growth,[5]; Log10 Concentration −6.0,95%
same,Percent Growth,[5]; Log10 Concentration −7.0,94%
same,Percent Growth,[5]; Log10 Concentration −8.0,103%
same,TGI,[6]; HL-60(TB),>1.00E−4
same,Percent Growth,[6]; Log10 Concentration −4.0,19%
same,Percent Growth,[6]; Log10 Concentration −5.0,43%
same,Percent Growth,[6]; Log10 Concentration −6.0,101%
same,Percent Growth,[6]; Log10 Concentration −7.0,100%
same,Percent Growth,[6]; Log10 Concentration −8.0,100%
same,TGI,[7]; K-562,>1.00E−4
same,Percent Growth,[7]; Log10 Concentration −4.0,48%
same,Percent Growth,[7]; Log10 Concentration −5.0,63%
same,Percent Growth,[7]; Log10 Concentration −6.0,87%
same,Percent Growth,[7]; Log10 Concentration −7.0,92%
same,Percent Growth,[7]; Log10 Concentration −8.0,94%
same,Percent Growth,[8]; Log10 Concentration −4.0,−1%
same,Percent Growth,[8]; Log10 Concentration −5.0,49%
same,Percent Growth,[8]; Log10 Concentration −6.0,93%
same,Percent Growth,[8]; Log10 Concentration −7.0,96%
same,Percent Growth,[8]; Log10 Concentration −8.0,98%
same,TGI,[8]; MOLT-4,9.51E−5
same,Percent Growth,[9]; Log10 Concentration −4.0,−12%
same,Percent Growth,[9]; Log10 Concentration −5.0,12%
same,Percent Growth,[9]; Log10 Concentration −6.0,73%
same,Percent Growth,[9]; Log10 Concentration −7.0,81%
same,Percent Growth,[9]; Log10 Concentration −8.0,97%
same,TGI,[9]; RPMI-8226,3.21E−5
same,TGI,[10]; A549/ATCC,>1.00E−4
same,Percent Growth,[10]; Log10 Concentration −4.0,17%
same,Percent Growth,[10]; Log10 Concentration −5.0,60%
same,Percent Growth,[10]; Log10 Concentration −6.0,97%
same,Percent Growth,[10]; Log10 Concentration −7.0,100%
same,Percent Growth,[10]; Log10 Concentration −8.0,91%
same,TGI,[11]; HOP-62,>1.00E−4
same,Percent Growth,[11]; Log10 Concentration −4.0,38%
same,Percent Growth,[11]; Log10 Concentration −5.0,72%
same,Percent Growth,[11]; Log10 Concentration −6.0,87%
same,Percent Growth,[11]; Log10 Concentration −7.0,94%
same,Percent Growth,[11]; Log10 Concentration −8.0,90%
same,Percent Growth,[12]; Log10 Concentration −4.0,22%
same,Percent Growth,[12]; Log10 Concentration −5.0,63%
same,Percent Growth,[12]; Log10 Concentration −6.0,85%
same,Percent Growth,[12]; Log10 Concentration −7.0,89%
same,Percent Growth,[12]; Log10 Concentration −8.0,85%
same,TGI,[12]; NCI-H226,>1.00E−4
same,Percent Growth,[13]; Log10 Concentration −4.0,21%
same,Percent Growth,[13]; Log10 Concentration −5.0,49%
same,Percent Growth,[13]; Log10 Concentration −6.0,74%
same,Percent Growth,[13]; Log10 Concentration −7.0,88%
same,Percent Growth,[13]; Log10 Concentration −8.0,92%
same,TGI,[13]; NCI-H23,>1.00E−4
same,Percent Growth,[14]; Log10 Concentration −4.0,2%
same,Percent Growth,[14]; Log10 Concentration −5.0,25%
same,Percent Growth,[14]; Log10 Concentration −6.0,74%
same,Percent Growth,[14]; Log10 Concentration −7.0,82%
same,Percent Growth,[14]; Log10 Concentration −8.0,84%
same,TGI,[14]; NCI-H460,>1.00E−4
same,Percent Growth,[15]; Log10 Concentration −4.0,32%
same,Percent Growth,[15]; Log10 Concentration −5.0,54%
same,Percent Growth,[15]; Log10 Concentration −6.0,87%
same,Percent Growth,[15]; Log10 Concentration −7.0,88%
same,Percent Growth,[15]; Log10 Concentration −8.0,89%
same,TGI,[15]; NCI-H522,>1.00E−4
same,GI50,[16],10.9 µM
same,GI50,[17],7.53 µM
same,Percent Growth,[18]; Log10 Concentration −4.0,29%
same,Percent Growth,[18]; Log10 Concentration −5.0,54%
same,Percent Growth,[18]; Log10 Concentration −6.0,93%
same,Percent Growth,[18]; Log10 Concentration −7.0,100%
same,Percent Growth,[18]; Log10 Concentration −8.0,96%
same,TGI,[18]; PC-3,>1.00E−4
same,GI50,[19],9.31 µM
same,TGI,[20]; DU-145,>1.00E−4
same,Percent Growth,[20]; Log10 Concentration −4.0,24%
same,Percent Growth,[20]; Log10 Concentration −5.0,37%
same,Percent Growth,[20]; Log10 Concentration −6.0,88%
same,Percent Growth,[20]; Log10 Concentration −7.0,98%
same,Percent Growth,[20]; Log10 Concentration −8.0,98%
same,GI50,[21],2.42 µM
same,GI50,[22],17.1 µM
same,GI50,[23],1.6 µM
same,GI50,[24],44.2 µM
same,GI50,[25],7.38 µM
same,GI50,[26],20.8 µM
same,GI50,[27],9.17 µM
same,GI50,[28],3.07 µM
same,GI50,[29],15.4 µM
same,GI50,[30],14.4 µM
same,GI50,[31],5.62 µM
